Laboratory results published in patent publication US9926304B2, “1-(arylmethyl)quinazoline-2,4(1H,3H)-diones as PARP inhibitors and the use thereof” (Impact Therapeutics, Inc., priority 2011, dated 2018).
Like-named read-outs stand apart in the source and are kept apart here.

How the values were obtained:
PARP-1 enzyme = molecular target: T1, PARP-1 enzyme (Homo sapiens, UniProt P09874); assay: PARP-1 enzymatic activity assay (Trevigen 96-well kit 4676-096-K); type: biochemical; conditions: 0.5 unit PARP-1, histone pre-coated plate, 60 min at room temperature; read-out: IC50 (nM), inhibitory effect on PARP-1 enzymatic activity
T1 construct: purchased Trevigen, Inc. 4676-096-K
T1 sequence (P09874 whole entry): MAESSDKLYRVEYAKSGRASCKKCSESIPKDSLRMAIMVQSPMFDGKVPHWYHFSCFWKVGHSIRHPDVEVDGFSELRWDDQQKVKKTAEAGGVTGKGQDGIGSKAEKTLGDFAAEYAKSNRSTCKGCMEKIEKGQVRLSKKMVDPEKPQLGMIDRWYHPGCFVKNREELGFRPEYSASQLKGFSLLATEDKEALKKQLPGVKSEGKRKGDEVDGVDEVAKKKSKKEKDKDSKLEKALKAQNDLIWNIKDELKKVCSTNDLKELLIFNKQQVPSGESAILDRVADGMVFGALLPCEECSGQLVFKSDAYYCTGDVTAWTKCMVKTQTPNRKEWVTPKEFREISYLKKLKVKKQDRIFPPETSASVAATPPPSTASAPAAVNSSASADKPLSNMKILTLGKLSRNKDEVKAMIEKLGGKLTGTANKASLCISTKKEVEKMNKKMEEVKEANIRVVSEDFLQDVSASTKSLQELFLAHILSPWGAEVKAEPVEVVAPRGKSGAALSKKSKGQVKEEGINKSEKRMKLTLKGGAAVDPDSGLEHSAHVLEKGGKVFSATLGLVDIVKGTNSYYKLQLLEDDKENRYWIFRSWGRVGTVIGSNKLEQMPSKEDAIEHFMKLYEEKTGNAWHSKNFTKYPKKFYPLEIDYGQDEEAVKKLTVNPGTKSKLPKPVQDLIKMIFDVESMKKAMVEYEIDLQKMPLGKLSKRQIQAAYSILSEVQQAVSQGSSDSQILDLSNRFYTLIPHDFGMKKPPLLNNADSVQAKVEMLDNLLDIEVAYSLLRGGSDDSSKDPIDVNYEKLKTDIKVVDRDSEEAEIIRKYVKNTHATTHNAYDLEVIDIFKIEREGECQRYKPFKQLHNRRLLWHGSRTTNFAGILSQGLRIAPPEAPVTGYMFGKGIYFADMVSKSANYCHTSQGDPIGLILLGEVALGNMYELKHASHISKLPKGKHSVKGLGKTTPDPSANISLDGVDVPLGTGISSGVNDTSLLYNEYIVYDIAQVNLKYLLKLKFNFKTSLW
Description: Measurement of the inhibitory effect of 1-(3-(4-(pyrimidin-2-yl)piperazine-1-carbonyl)benzyl)quinazoline-2,4(1H,3H)-dione and analogs on PARP-1 enzymatic activity
Briefly, PARP-1 catalyzes the NAD-dependent addition of poly(ADP-ribose) to its nuclear protein substrates such as histones. The assay kit measures the incorporation of biotynylated poly(ADP-ribose) onto histone proteins in a 96-well format.

[1] = system: BRCA-2 deficient CAPAN-1 human pancreatic cancer cells; assay: MTT based cell viability assay: growth inhibition of BRCA-2 deficient CAPAN-1 cells; conditions: 240 h, compound alone, 10 day assay
[2] = system: SW620 human colorectal cancer cells; assay: MTT based cell viability assay: potentiation of the growth inhibiting activity of MMS
Description: Briefly, SW620 human colorectal cancer cells were used to measure the cell growth inhibiting activity of DNA alkylating anticancer drug MMS. […] SW620 cells were grown and maintained in RPMI1640 (Gibco) medium supplemented with 10% FBS (Hyclone). In the first day of experiment, 4000 cells were seeded to each well of a 96-well cell culture plate and incubated at 37° C. and 5% CO2 in a cell culture incubator overnight. In the next day, the cell culture medium was removed. […] The serial dilutions of the reference compounds and the compounds to be tested were made with a 1:3 and 1:10 fashion in DMSO. The 10-fold concentrated solutions of these compounds were made by mixing 10 μl of the serial dilutions in DMSO with 90 μl fresh medium. The final concentration of DMSO in the medium was 1%. The cells were incubated at 37° C. in 5% CO2 cell culture incubator for additional 5 days (120 hours). Afterwards, the 96-well cell culture plate was taken out and 20 μl of MTT solution was added to each well and incubated at 37° C. for 4 h. The medium was removed and 100 μl DMSO was added to each well. The 96-well cell culture plates were shaked adequately for 10 min and read in a Varioskan Flash plate reader (Thermo Fisher Scientific) at 520 and 690 nm. The data were analyzed by Prism 5 software (GraphPad). The obtained 520 nm absorbance readings subtracting corresponding 690 nm reading were analyzed and plotted against the Log scale of the compound concentrations.

[3] = system: Human breast cancer cell line T47D; assay: Cell based caspase-3 activity assay: potentiation of MMS induced apoptosis; conditions: read-out: EC50 (nM), potentiation of the apoptosis inducing activity of MMS
Method in brief: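 T47D cells were exposed for 24 h to compound plus a minimally apoptotic MMS dose (medium containing 11.1 μg/ml MMS). Lysates were incubated 3 h at 37 °C with (Ac-DEVD)2-R110 caspase-3 substrate (20 μM in added buffer) and read at ex 496/em 520 nm. EC50 came from a sigmoidal fit of RFU versus log concentration.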

advanced breast cancer = conditions: Phase II clinical trial; cited from earlier work
[4] = Homo sapiens, SW-620, 120 h, read-out: IC50 (nM), potentiation of the growth inhibiting activity of MMS, SW620 cells, 1.7 μg/ml MMS, 5 days (120 hours), MTT
[5] = Homo sapiens, T47D, 24 h, T47D cells, 11.1 μg/ml MMS, 24 hours, intracellular caspase-3 activity
[6] = read-out: IC50 (nM), potentiation of the growth inhibiting activity of MMS, SW620 cells, 1.7 μg/ml MMS, 5 days (120 hours), MTT

Row | Structure (SMILES) | IC50 (PARP-1 enzyme) [nM] | IC50 [1] [nM] | IC50 [2, 4] [nM] | EC50 [3, 5] [nM] | EC50 ([3]; T47D cells, 11.1 μg/ml MMS, 24 hours, intracellular caspase-3 activity) [nM] | IC50 [2, 6] [nM] | EC50 ([3]; Homo sapiens, T47D, 24 h) [nM] | IC50 ([2]; Homo sapiens, SW-620, 120 h, read-out: IC50 (nM), potentiation of the growth inhibiting activity of MMS) [nM] | efficacy in treatment of advanced breast cancer (advanced breast cancer)
1 | O=C(c1cccc(Cn2c(=O)[nH]c(=O)c3ccccc32)c1)N1CCN(c2ncccn2)CC1 [Example 4, 1-(3-(4-(Pyrimidin-2-yl)piperazine-1-carbonyl)benzyl)quinazoline-2,4(1H,3H)-dione] | 0.96 | 55 |  |  | 12 | 12 |  |  | 
2 | O=C(c1cccc(Cn2c(=O)[nH]c(=O)c3ccccc32)c1)N1CCN(c2ccccn2)CC1 [Example 3, 1-(3-(4-(Pyridin-2-yl)piperazine-1-carbonyl)benzyl)quinazoline-2,4(1H,3H)-dione] | 4.2 | 445 | 90 | 56 |  |  |  |  | 
3 | O=C(c1cccc(Cn2c(=O)[nH]c(=O)c3c(F)cccc32)c1)N1CCN(c2ncccn2)CC1 [Example 127, 5-Fluoro-1-(3-(4-(pyrimidin-2-yl)piperazine-1-carbonyl)benzyl)quinazoline-2,4(1H,3H)-dione] | 0.37 | 44 | 13 | 4.1 |  |  |  |  | 
4 | O=C(c1cc(Cn2c(=O)[nH]c(=O)c3c(F)cccc32)ccc1F)N1CCN(c2ncccn2)CC1 [Example 132, 5-Fluoro-1-(4-fluoro-3-(4-(pyrimidin-2-yl)piperazine-1-carbonyl)benzyl)quinazoline-2,4(1H,3H)-dione] | 1.19 | 17 | 4.1 | 0.93 |  |  |  |  | 
5 | O=C(c1cccc(Cn2c(=O)[nH]c(=O)c3cc(F)ccc32)c1)N1CCN(c2ncccn2)CC1 [Example 139, 6-Fluoro-1-(3-(4-(pyrimidin-2-yl)piperazine-1-carbonyl)benzyl)quinazoline-2,4(1H,3H)-dione] | 1.3 | 36 | 16 | 4 |  |  |  |  | 
6 | O=C(c1ccccc1)N1CCN(C(=O)c2cccc(Cn3c(=O)[nH]c(=O)c4ccccc43)c2)CC1 [Example 8, 1-(3-(4-Benzoylpiperazine-1-carbonyl)benzyl)quinazoline-2,4(1H,3H)-dione] | 5.3 | 2360 | 112 | 120 |  |  |  |  | 
7 | O=C(c1cc(Cn2c(=O)[nH]c(=O)c3ccccc32)ccc1F)N1CCN(c2ncccn2)CC1 [Example 25, 1-(4-Fluoro-3-(4-(pyrimidin-2-yl)piperazine-1-carbonyl)benzyl)quinazoline-2,4(1H,3H)-dione] | 0.21 | 98 |  | 3.9 |  | 9.8 |  |  | 

Further lines, with some results ahead:

Row | IC50 (PARP-1 enzyme) [nM] | IC50 [1] [nM] | IC50 [2, 4] [nM] | EC50 [3, 5] [nM] | EC50 ([3]; T47D cells, 11.1 μg/ml MMS, 24 hours, intracellular caspase-3 activity) [nM] | IC50 [2, 6] [nM] | EC50 ([3]; Homo sapiens, T47D, 24 h) [nM] | IC50 ([2]; Homo sapiens, SW-620, 120 h, read-out: IC50 (nM), potentiation of the growth inhibiting activity of MMS) [nM] | Structure (SMILES) | efficacy in treatment of advanced breast cancer (advanced breast cancer)
8 | 2.2 | 736 | 10 |  |  |  |  |  | O=C(c1cc(Cn2c(=O)[nH]c(=O)c3c(F)cccc32)ccc1F)N1CCN(c2nccs2)CC1 [Example 189, 5-Fluoro-1-(4-fluoro-3-(4-(thiazol-2-yl)piperazine-1-carbonyl)benzyl)quinazoline-2,4(1H,3H)-dione] | 
9 | 1.2 | 47 | 2.7 | 3.4 |  |  |  |  | O=C(c1cc(Cn2c(=O)[nH]c(=O)c3cc(F)ccc32)ccc1F)N1CCN(C(=O)C2CCCCC2)CC1 [Example 147, 1-(3-(4-(Cyclohexylcarbonyl)piperazine-1-carbonyl)-4-fluorobenzyl)-6-fluoroquinazoline-2,4(1H,3H)-dione] | 
10 | 1.15 | 78 | 2.8 | 3.4 |  |  |  |  | O=C(c1cc(Cn2c(=O)[nH]c(=O)c3cc(F)ccc32)ccc1F)N1CCN(c2ncccn2)CC1 [Example 144, 6-Fluoro-1-(4-fluoro-3-(4-(pyrimidin-2-yl)piperazine-1-carbonyl)benzyl)quinazoline-2,4(1H,3H)-dione] | 
11 | 0.88 | 318 | 6.8 | 5.7 |  |  |  |  | O=C(c1cc(Cn2c(=O)[nH]c(=O)c3ccccc32)ccc1F)N1CCN(C(=O)C2CCC2)CC1 [Example 44, 1-(3-(4-(Cyclobutylcarbonyl)piperazine-1-carbonyl)-4-fluorobenzyl)quinazoline-2,4(1H,3H)-dione] | 
12 |  |  |  |  |  |  | 24 | 28 | O=C(c1cc(Cc2n[nH]c(=O)c3ccccc23)ccc1F)N1CCN(C(=O)C2CC2)CC1 [AZD2281, olaparib, reference compound] | effective
